# The Kinase Knowledgebase extract (Sharma et al. 2016)
# Biological target: EGFR (human) (UniProt P00533)
# Settings: A431
# Chain of EGFR (human) (P00533 whole entry, looked up): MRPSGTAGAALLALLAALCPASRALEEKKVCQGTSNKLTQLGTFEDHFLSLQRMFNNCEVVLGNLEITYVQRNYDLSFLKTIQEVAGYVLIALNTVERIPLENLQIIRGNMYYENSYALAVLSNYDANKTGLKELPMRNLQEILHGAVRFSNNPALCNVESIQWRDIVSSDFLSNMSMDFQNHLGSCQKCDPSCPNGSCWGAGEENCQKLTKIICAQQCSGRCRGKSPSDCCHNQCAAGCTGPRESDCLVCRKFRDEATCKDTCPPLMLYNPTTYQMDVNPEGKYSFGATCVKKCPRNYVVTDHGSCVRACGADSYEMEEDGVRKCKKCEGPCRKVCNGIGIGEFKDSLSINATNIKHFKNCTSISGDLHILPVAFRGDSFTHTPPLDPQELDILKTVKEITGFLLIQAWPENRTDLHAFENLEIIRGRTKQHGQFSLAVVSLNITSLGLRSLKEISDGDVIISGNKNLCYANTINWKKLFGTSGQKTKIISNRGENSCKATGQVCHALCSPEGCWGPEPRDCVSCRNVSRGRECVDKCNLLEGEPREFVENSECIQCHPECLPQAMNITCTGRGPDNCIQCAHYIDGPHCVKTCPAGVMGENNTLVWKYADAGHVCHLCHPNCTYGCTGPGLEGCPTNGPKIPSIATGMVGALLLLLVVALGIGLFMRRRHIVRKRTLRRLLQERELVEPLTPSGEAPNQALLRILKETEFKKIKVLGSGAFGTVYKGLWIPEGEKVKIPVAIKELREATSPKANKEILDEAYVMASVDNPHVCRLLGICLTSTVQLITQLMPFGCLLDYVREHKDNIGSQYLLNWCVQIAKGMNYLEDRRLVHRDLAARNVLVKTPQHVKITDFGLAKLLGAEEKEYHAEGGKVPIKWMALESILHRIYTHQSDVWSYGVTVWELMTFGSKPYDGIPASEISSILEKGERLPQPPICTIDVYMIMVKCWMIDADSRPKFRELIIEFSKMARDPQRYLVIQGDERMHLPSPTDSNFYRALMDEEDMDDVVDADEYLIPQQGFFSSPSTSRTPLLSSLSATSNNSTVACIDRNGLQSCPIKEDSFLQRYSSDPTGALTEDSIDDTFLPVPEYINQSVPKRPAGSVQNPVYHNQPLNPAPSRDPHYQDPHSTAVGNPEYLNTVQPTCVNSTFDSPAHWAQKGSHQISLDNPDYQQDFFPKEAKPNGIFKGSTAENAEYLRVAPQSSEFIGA
row,Structure (SMILES),IC50 [nM]
1,CCOc1cc(/C=C(\C#N)C(N)=O)cc(CSc2ccc(O)cc2)c1O,2800
2,CC(C)c1cc(/C=C(\C#N)C(N)=O)cc(C(C)C)c1O,1100
3,CC(C)c1cc(CC(C#N)C(N)=O)cc(C(C)C)c1O (stereo unspecified),9800
4,CCOc1cc(/C=C(\C#N)C(N)=O)cc(CSc2cccc(OC)c2)c1O,4000
5,CCOc1cc(/C=C(\C#N)C(N)=O)cc(CSc2ccc(C)cc2)c1O,2200
6,CC(C)(C)c1cc(/C=C(\C#N)C(N)=O)cc(C(C)(C)C)c1O,46000
7,CCOc1cc(/C=C(\C#N)C(N)=O)cc(CSc2c(F)c(F)c(F)c(F)c2F)c1O,3000

# The remaining lines, values ahead:
row,IC50 [nM],Structure (SMILES)
1,530,COc1cc(/C=C(\C#N)C(N)=O)cc(CSc2ccccc2)c1O
2,370,CCOc1cc(/C=C(\C#N)C(N)=O)cc(CSc2ccccc2)c1O
3,370,N#C/C(=C\c1cc(-c2ccccc2)c(O)c(-c2ccccc2)c1)C(N)=O
4,750,N#C/C(=C\c1cc(CSc2ccccc2)c(O)c(OCc2ccccc2)c1)C(N)=O
5,600,N#C/C(=C\c1cc(Cc2ccccc2)c(O)c(Cc2ccccc2)c1)C(N)=O

# Same assay, conditions: A431; concentration not given here
row,Structure (SMILES),inhibition [%]
1,CCOc1cc(/C=C(\C#N)C(N)=O)cc(CSc2ccc(O)cc2)c1O,30
2,CCOc1cc(/C=C(\C#N)C(N)=O)cc(CSc2cccc(Cl)c2)c1O,0
3,CCOc1cc(/C=C(\C#N)C(N)=O)cc(CSc2ccc([N+](=O)[O-])cc2)c1O,0
4,CCOc1cc(/C=C(\C#N)C(N)=O)cc(CSc2ccc(C(C)(C)C)cc2)c1O,0
5,CCOc1cc(/C=C(\C#N)C(N)=O)cc(CSc2cccc(OC)c2)c1O,17
6,CCOc1cc(/C=C(\C#N)C(N)=O)cc(CSc2ccc(Cl)c(Cl)c2)c1O,0
7,CCOc1cc(/C=C(\C#N)C(N)=O)cc(CSc2ccc(C)cc2)c1O,47
8,CCOc1cc(/C=C(\C#N)C(N)=O)cc(CSc2c(F)c(F)c(F)c(F)c2F)c1O,41

# Now from value to compound:
row,inhibition [%],Structure (SMILES)
1,20,CCOc1cc(/C=C(\C#N)C(N)=O)cc(CSc2ccccc2)c1OC(=O)c1ccccc1
2,24,CCOc1cc(/C=C(\C#N)C(N)=O)cc(CSc2ccccc2)c1OC(C)=O
3,0,CCOc1cc(/C=C(\C#N)C(N)=O)cc(CSc2ccccc2OC)c1O
4,18,CCOc1cc(/C=C(\C#N)C(N)=O)cc(COc2ccccc2)c1O
5,0,CCOc1cc(/C=C(\C#N)C(N)=O)cc(CSc2ccc(Br)cc2)c1O
6,18,CCOc1cc(/C=C(\C#N)C(N)=O)cc(CSc2ccccc2)c1OC
